Assay results published in PMC8125234, “Cardiolipin Stabilizes and Increases Catalytic Efficiency of Carnitine Palmitoyltransferase II and Its Variants S113L, P50H, and Y479F” (International Journal of Molecular Sciences, 2021).
Numbering of substitutions follows the chain as printed. Entries after “also recorded” stand apart in the source; their conditions may differ.

Assays:
[1] = tested on: recombinant human CPT II WT; parameters: method as in PMID 13534673; settings: cited from earlier work
CPT II variant P50H [2] = molecular target: T1, CPT II variant P50H (Homo sapiens, UniProt P23786, P50H); assay: Lipid binding assay (membrane lipid strips); settings: 0.4 mg enzyme, 100 pmol lipid spots
T1 construct: made in house; host or cells: Escherichia coli BL21Gold DE
T1 sequence (P23786 26-658 P50H): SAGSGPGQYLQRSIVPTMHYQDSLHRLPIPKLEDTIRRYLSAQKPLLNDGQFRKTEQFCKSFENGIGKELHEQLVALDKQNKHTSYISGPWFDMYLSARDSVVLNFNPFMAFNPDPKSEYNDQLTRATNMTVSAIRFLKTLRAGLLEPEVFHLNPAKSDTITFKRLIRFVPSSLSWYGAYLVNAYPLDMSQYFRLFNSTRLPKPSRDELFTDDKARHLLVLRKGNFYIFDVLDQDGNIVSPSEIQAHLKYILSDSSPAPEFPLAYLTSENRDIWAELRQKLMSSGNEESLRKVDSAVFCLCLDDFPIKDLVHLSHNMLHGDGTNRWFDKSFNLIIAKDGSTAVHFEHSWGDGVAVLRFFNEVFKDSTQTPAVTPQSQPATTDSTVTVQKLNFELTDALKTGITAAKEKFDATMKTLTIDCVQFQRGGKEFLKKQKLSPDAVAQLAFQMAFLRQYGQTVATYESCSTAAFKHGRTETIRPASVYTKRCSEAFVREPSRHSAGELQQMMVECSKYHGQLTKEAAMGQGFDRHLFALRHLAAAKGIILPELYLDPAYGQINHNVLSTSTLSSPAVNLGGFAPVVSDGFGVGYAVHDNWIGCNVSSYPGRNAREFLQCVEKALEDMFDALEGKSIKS
Protocol: Direct interaction of CPT II WT and variants with phospholipids of the mitochondrial membrane was assessed using membrane lipid strips (Echelon Biosciences, Salt Lake City, Utah, USA). The membrane was spotted with 100 pmol of various cell membrane lipids. The assay was performed following manufacturer’s instructions with some modifications explained in the following. At first, the membrane was washed twice in phosphate buffered saline (PBS). After 1 h incubation with blocking solution (3% BSA fatty acid-free in PBS) at room temperature, the membrane was incubated with purified CPT II WT or variant (final amount 0.4 mg protein) for 2 h at 4 °C. After three washing steps, a-His-Probe (H3) mouse monoclonal antibody (Santa Cruz Biotech, Santa Cruz, CA, USA, 1:1000 dilution in PBS containing 3% BSA) was added to the membrane over night at 4 °C. The membrane was washed three times with PBS and incubated with mouse IgG horseradish peroxidase-linked whole antibody (from sheep, Amersham, Little Chalfont, Buckinghamshire, UK) for 1 h at 4 °C. The interaction was visualized by ECL Western blotting detection reagents (Amersham, Little Chalfont, Buckinghamshire, UK).

CPT II variant S113L = molecular target: T2, CPT II variant S113L (Homo sapiens, UniProt P23786, S113L); assay: nanoDSF protein stability in presence of CL or β-OG; format: binding
T2 construct: made in house; host or cells: Escherichia coli BL21Gold DE
T2 sequence (P23786 26-658 S113L): T1 sequence (P23786 26-658 P50H) with H25P, S88L
Protocol: (§1) NanoDSF is a standard method for the investigation of the folding/unfolding of proteins and the interaction of proteins with effectors/ligands/substrates
(§2) The protein stability was investigated applying nano differential scanning fluorimetry (nanoDSF) using a protein concentration of 1 mg/mL in assay buffer. […] The heating rate has been set to 1 °C per min. A heating ramp from 15 to 95 °C was determined. The nanoDSF data were obtained using a Prometheus NT.48 device. First derivatives were calculated using PR.ThermControl software (NanoTemper Technologies GmbH, Munich, Germany). Experiments were performed at least three times independently as double determination.

CPT II variant P50H [3] = molecular target: T1, CPT II variant P50H; assay: as above; format: binding
Protocol: as §1, §2

CPT II WT = molecular target: T3, CPT II WT (Homo sapiens, UniProt P23786); assay: as above; format: binding
T3 construct: made in house; host or cells: Escherichia coli BL21Gold DE
T3 sequence (P23786 26-658): T1 sequence (P23786 26-658 P50H) with H25P
Protocol: as §1, §2

[4] = reference TM of WT in buffer (ΔTM = 0 °C)

Cardiolipin [CL]
Effect of CL on enzyme activity [1]: activity-increasing effect | Signal for interaction on membrane lipid strips (CPT II variant P50H [2]): lowest; also recorded: clearly proven | Increase of ΔTM-value due to the addition of CL (CPT II variant S113L; 0.25 mM CL): +10 °C | ∆TM in Buffer with 0.25 mM CL (CPT II variant S113L; [4]): 6.5 ± 0.2 °C | Increase of ΔTM-value due to the addition of CL (CPT II variant P50H [3]; 0.25 mM CL): +13 °C | TM in Buffer with 0.25 mM CL (CPT II variant P50H [3]; 1 mg/mL protein): 40.2 ± 0.7 °C | ∆TM in Buffer with 0.25 mM CL (CPT II variant P50H [3]; [4]): 3.3 ± 0.1 °C | Increase of ΔTM-value due to the addition of CL (CPT II WT; 0.25 mM CL): +10 °C | TM in Buffer with 0.25 mM CL (CPT II WT; 1 mg/mL protein): 47.6 °C | ∆TM in Buffer with 0.25 mM CL (CPT II WT; [4]): 10.6 °C
